Read-outs that look alike come from different tables or passages of the source.

One data set deals with Nav 1.5 (Homo sapiens (Human), UniProt Q14524). Kind of data set: in-vitro Nav 1.5 PX data. The note with it: read-out: Nav 1.5 PX IC50.
The next data set has as its target Nav 1.7 (Homo sapiens (Human), UniProt Q15858). The experiment in a line: in-vitro Nav 1.7 PX data. It counts as cell-based.

Sequence of Nav 1.5 (Q14524 whole entry): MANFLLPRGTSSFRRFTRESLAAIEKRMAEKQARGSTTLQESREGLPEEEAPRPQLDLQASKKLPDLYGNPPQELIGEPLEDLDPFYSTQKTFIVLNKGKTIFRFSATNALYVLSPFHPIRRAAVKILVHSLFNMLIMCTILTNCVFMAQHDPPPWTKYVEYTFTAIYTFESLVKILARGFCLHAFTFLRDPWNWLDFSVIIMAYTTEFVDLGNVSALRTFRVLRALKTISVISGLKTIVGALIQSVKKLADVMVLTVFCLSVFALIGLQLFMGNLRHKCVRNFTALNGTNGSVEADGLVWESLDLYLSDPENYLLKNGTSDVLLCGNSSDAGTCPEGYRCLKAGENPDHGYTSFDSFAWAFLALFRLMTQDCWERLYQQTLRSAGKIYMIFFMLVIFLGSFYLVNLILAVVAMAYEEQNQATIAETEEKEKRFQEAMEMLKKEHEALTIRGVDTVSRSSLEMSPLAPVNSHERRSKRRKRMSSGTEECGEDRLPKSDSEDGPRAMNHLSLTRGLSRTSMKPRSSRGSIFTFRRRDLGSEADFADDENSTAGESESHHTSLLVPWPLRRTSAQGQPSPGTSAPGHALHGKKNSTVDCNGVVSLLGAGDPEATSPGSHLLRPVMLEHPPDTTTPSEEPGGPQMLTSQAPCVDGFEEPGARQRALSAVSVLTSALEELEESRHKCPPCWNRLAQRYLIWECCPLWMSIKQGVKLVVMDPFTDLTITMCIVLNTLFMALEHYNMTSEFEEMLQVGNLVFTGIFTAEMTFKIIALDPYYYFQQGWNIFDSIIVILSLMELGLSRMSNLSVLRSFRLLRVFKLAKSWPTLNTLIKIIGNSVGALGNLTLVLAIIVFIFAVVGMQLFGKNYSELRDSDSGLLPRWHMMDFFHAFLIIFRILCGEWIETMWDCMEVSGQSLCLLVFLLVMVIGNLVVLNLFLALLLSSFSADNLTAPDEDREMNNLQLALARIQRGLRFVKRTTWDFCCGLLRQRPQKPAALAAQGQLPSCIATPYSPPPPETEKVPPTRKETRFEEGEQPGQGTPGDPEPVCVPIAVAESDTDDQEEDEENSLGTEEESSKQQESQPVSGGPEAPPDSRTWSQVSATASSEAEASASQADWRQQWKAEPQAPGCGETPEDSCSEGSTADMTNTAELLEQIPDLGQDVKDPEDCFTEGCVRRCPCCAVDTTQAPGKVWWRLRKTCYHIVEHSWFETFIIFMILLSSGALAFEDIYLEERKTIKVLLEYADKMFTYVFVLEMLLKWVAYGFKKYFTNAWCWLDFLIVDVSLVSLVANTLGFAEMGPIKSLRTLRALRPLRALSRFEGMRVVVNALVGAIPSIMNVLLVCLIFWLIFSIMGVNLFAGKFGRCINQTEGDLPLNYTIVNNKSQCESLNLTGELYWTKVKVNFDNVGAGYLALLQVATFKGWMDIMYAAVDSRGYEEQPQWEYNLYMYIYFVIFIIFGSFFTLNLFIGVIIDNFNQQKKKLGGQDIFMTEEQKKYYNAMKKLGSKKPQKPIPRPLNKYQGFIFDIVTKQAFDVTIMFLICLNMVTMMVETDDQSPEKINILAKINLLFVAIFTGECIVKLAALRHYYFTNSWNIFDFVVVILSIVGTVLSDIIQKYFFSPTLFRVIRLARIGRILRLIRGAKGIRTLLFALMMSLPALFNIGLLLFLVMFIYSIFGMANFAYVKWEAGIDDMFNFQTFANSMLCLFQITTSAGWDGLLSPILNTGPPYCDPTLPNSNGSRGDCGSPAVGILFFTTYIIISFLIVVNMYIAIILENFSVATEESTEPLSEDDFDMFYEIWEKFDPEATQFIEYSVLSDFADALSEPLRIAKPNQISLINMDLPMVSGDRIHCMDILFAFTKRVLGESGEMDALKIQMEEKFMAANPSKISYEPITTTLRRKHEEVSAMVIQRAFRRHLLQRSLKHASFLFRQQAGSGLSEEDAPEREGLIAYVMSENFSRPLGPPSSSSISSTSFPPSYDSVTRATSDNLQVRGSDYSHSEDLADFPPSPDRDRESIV
Sequence of Nav 1.7 (Q15858 whole entry): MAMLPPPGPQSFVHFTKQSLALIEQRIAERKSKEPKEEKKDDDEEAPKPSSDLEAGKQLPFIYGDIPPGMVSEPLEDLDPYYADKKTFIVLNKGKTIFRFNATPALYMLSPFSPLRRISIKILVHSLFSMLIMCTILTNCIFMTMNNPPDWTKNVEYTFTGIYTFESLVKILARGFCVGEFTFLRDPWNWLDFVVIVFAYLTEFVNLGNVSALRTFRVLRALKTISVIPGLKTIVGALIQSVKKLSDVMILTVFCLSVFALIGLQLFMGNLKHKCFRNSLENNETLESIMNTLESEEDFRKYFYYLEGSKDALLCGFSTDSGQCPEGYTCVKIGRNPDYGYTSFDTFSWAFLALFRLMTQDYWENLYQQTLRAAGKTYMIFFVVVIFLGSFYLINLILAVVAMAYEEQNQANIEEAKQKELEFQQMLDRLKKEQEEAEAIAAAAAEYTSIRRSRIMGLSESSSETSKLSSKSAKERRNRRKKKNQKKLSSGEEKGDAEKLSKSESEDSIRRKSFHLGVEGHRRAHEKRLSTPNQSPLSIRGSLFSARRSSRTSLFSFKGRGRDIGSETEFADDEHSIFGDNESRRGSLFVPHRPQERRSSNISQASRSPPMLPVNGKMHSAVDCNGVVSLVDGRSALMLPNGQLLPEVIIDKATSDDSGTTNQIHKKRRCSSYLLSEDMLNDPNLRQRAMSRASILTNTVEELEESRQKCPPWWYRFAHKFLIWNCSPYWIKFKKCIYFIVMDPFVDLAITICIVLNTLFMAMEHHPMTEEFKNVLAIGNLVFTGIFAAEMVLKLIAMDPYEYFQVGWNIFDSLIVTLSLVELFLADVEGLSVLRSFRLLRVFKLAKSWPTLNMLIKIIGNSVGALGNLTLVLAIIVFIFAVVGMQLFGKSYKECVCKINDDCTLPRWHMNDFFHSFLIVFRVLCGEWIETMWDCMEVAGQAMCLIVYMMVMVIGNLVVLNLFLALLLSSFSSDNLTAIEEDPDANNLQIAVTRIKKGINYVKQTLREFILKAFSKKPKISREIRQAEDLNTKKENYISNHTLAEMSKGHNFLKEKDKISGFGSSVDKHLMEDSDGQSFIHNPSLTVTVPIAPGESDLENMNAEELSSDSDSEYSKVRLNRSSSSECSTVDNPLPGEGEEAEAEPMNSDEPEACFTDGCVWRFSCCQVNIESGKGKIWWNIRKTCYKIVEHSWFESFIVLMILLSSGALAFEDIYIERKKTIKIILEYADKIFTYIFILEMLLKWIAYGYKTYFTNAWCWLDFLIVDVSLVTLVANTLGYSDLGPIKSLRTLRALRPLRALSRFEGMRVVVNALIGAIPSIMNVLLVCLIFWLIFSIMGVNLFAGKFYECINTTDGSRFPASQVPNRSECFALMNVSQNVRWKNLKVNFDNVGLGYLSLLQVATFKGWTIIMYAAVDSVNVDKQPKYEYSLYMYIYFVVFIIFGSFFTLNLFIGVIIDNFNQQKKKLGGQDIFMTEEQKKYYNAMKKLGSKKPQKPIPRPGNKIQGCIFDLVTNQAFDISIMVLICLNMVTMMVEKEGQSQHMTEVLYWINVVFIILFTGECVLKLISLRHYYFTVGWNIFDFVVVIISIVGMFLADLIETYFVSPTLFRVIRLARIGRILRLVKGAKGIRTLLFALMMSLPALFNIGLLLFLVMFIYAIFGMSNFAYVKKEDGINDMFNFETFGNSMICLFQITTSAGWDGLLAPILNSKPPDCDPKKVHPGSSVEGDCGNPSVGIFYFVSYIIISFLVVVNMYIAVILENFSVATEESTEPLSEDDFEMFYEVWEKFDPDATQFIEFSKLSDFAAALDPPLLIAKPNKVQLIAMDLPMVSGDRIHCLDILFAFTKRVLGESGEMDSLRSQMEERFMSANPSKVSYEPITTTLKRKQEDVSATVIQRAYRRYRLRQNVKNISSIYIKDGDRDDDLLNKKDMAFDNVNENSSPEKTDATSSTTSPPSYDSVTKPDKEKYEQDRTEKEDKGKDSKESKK

As to `COc1cc(-c2cccc(C(F)(F)F)c2)c(F)cc1-c1nn(C)c(=O)c2cc(S(=O)(=O)Nc3ccon3)ccc12` [Example 25, 1-(2-FLUORO-5-METHOXY-3′-(TRIFLUOROMETHYL)-[1,1′-BIPHENYL]-4-YL)-N-(ISOXAZOL-3-YL)-3-METHYL-4-OXO-3,4-DIHYDROPHTHALAZINE-6-SULFONAMIDE], the IC50 on Nav 1.5 (in-vitro PX) is > 10000 nM; against Nav 1.7, 94.1 nM.

Take `COc1cc(-c2cccc(F)c2)c(Cl)cc1-c1ncnc2cc(S(=O)(=O)Nc3ncon3)ccc12` [Example 26, 4-(2-CHLORO-3′-FLUORO-5-METHOXY-[1,1′-BIPHENYL]-4-YL)-N-(1,2,4-OXADIAZOL-3-YL)QUINAZOLINE-7-SULFONAMIDE]: the concentration for half-maximal inhibition (IC50) at Nav 1.5 (in-vitro PX) is > 10000 nM; at Nav 1.7 (in-vitro PX), 85 nM.

Take `COc1cc(-c2cccc(F)c2)c(Cl)cc1-c1ncc(C#N)c2cc(S(=O)(=O)Nc3ccon3)ccc12` [Example 27, 1-(2-CHLORO-3′-FLUORO-5-METHOXY-[1,1′-BIPHENYL]-4-YL)-4-CYANO-N-(ISOXAZOL-3-YL)ISOQUINOLINE-6-SULFONAMIDE]: the 50% inhibitory concentration (IC50) at Nav 1.5 (in-vitro PX) is > 10000 nM; against Nav 1.7, 282 nM.

Consider `COc1cc(-c2cc(F)cc(F)c2)c(C#N)cc1-c1nccc2cc(S(=O)(=O)Nc3ccncn3)ccc12` [Example 28, 1-(2-CYANO-3′,5′-DIFLUORO-5-METHOXY-[1,1′-BIPHENYL]-4-YL)-N-(PYRIMIDIN-4-YL)ISOQUINOLINE-6-SULFONAMIDE], for which the IC50 at Nav 1.5 (in-vitro Nav 1.5 PX data) is > 10000 nM; against Nav 1.7, 144 nM.

On to `COc1cc(-c2cc(F)cnc2OC)ccc1-c1nccc2cc(S(=O)(=O)Nc3nncs3)ccc12` [Example 30, 1-(4-(5-FLUORO-2-METHOXYPYRIDIN-3-YL)-2-METHOXYPHENYL)-N-(1,3,4-THIADIAZOL-2-YL)ISOQUINOLINE-6-SULFONAMIDE], for which the concentration for half-maximal inhibition (IC50) at Nav 1.5 (in-vitro Nav 1.5 PX data) was > 30000 nM; against Nav 1.7 (in-vitro Nav 1.7 PX data), 80.1 nM.

Regarding `COc1cc(-c2cc(F)cnc2OC)ccc1-c1nccc2cc(S(=O)(=O)Nc3ccon3)ccc12` [Example 31, 1-(4-(5-FLUORO-2-METHOXYPYRIDIN-3-YL)-2-METHOXYPHENYL)-N-(ISOXAZOL-3-YL)ISOQUINOLINE-6-SULFONAMIDE], the 50% inhibitory concentration (IC50) is > 10000 nM at Nav 1.5 (in-vitro PX (PatchXpress) data) and 169 nM against Nav 1.7 (in-vitro PX (PatchXpress) data).

Turning to `Cc1ccc(Oc2ccccc2)cc1-c1nccc2cc(S(=O)(=O)Nc3ccncn3)ccc12` [Example 39, 1-(2-METHYL-5-PHENOXYPHENYL)-N-(PYRIMIDIN-4-YL)ISOQUINOLINE-6-SULFONAMIDE], the results for the IC50 on Nav 1.5 (in-vitro Nav 1.5 PX data) and on Nav 1.7 (in-vitro Nav 1.7 PX data) were > 10000 nM and 488 nM, respectively.

Consider `COc1cc(-c2cccc(F)c2)c(Cl)cc1-c1nccc2cc(S(=O)(=O)Nc3ccon3)c(F)cc12` [Example 43, 1-(2-CHLORO-3′-FLUORO-5-METHOXY-[1,1′-BIPHENYL]-4-YL)-7-FLUORO-N-(ISOXAZOL-3-YL)ISOQUINOLINE-6-SULFONAMIDE], for which the 50% inhibitory concentration (IC50) was > 10000 nM on Nav 1.5 (PatchXpress (PX), in vitro) and 45.6 nM against Nav 1.7 (PatchXpress (PX), in vitro).

As for `COc1cc(-c2cccc(F)c2)ccc1-c1nccc2cc(S(=O)(=O)Nc3ncns3)c(F)cc12` [Example 44, 7-FLUORO-1-(3′-FLUORO-3-METHOXY-[1,1′-BIPHENYL]-4-YL)-N-(1,2,4-THIADIAZOL-5-YL)ISOQUINOLINE-6-SULFONAMIDE], the IC50 is > 10000 nM at Nav 1.5 (PatchXpress (PX), in vitro) and 48.8 nM at Nav 1.7.

Take `COc1cc(-c2ccccc2)ccc1-c1nccc2cc(S(=O)(=O)Nc3ccon3)ccc12` [Example 49, N-(ISOXAZOL-3-YL)-1-(3-METHOXY-[1,1′-BIPHENYL]-4-YL)ISOQUINOLINE-6-SULFONAMIDE]: the IC50 on Nav 1.5 (PatchXpress (PX), in vitro) was > 10000 nM; against Nav 1.7 (PatchXpress (PX), in vitro), 311 nM.

As to `COc1cc(-c2ccccc2)ccc1-c1nccc2cc(S(=O)(=O)Nc3nncs3)ccc12` [Example 50], the IC50 at Nav 1.5 (PatchXpress (PX), in vitro) is > 10000 nM; at Nav 1.7 (PatchXpress (PX), in vitro), 174 nM.

As for `COc1nc(OCC2CCCCC2)ccc1-c1nccc2cc(S(=O)(=O)Nc3ccncn3)ccc12` [Example 66, 1-(6-(cyclohexylmethoxy)-2-methoxy-3-pyridinyl)-N-4-pyrimidinyl-6-isoquinolinesulfonamide], the half-maximal inhibitory concentration (IC50) is > 10000 nM on Nav 1.5 (PatchXpress (PX), in vitro) and 349 nM at Nav 1.7 (PatchXpress (PX), in vitro).

Regarding `COc1nc(OCC2CCC(F)(F)CC2)ccc1-c1nccc2cc(S(=O)(=O)Nc3ccncn3)ccc12` [Example 69, 1-(6-((4,4-difluorocyclohexyl)methoxy)-2-methoxy-3-pyridinyl)-N-4-pyrimidinyl-6-isoquinolinesulfonamide], the concentration for half-maximal inhibition (IC50) at Nav 1.5 (PatchXpress (PX), in vitro) was > 30000 nM; against Nav 1.7 (PatchXpress (PX), in vitro), 459 nM.

As to `COc1nc(NC2CCCCC2)ccc1-c1nccc2cc(S(=O)(=O)Nc3ccncn3)ccc12` [Example 73, 1-(6-(cyclohexylamino)-2-methoxy-3-pyridinyl)-N-4-pyrimidinyl-6-isoquinolinesulfonamide], the IC50 on Nav 1.5 (PatchXpress (PX), in vitro) is > 10000 nM; against Nav 1.7 (PatchXpress (PX), in vitro), 436 nM.

In the case of `COc1cc(-c2ccc(Cl)c(F)c2)c(C#N)cc1-c1nccc2cc(S(=O)(=O)Nc3ccon3)ccc12` [Example 76, 1-(4′-chloro-2-cyano-3′-fluoro-5-methoxy-4-biphenylyl)-N-3-isoxazolyl-6-isoquinolinesulfonamide], the IC50 at Nav 1.5 (PatchXpress (PX), in vitro) is > 10000 nM; against Nav 1.7 (PatchXpress (PX), in vitro), 58.5 nM.

On to `COc1cc(-c2cc(C)cc(F)c2)c(C#N)cc1-c1nccc2cc(S(=O)(=O)Nc3ccon3)ccc12` [Example 77, 1-(2-cyano-3′-fluoro-5-methoxy-5′-methyl-4-biphenylyl)-N-3-isoxazolyl-6-isoquinolinesulfonamide], for which the IC50 at Nav 1.5 (PatchXpress (PX), in vitro) was > 10000 nM; at Nav 1.7 (PatchXpress (PX), in vitro), 72.5 nM.

Turning to `COc1cc(-c2ccc(C)c(Cl)c2)c(C#N)cc1-c1nccc2cc(S(=O)(=O)Nc3ccon3)ccc12` [Example 78, 1-(3′-chloro-2-cyano-5-methoxy-4′-methyl-4-biphenylyl)-N-3-isoxazolyl-6-isoquinolinesulfonamide], the 50% inhibitory concentration (IC50) on Nav 1.5 (PatchXpress (PX), in vitro) is > 10000 nM; against Nav 1.7 (PatchXpress (PX), in vitro) it was 33 nM.

On to `COc1cc(-c2ccccc2C)c(C#N)cc1-c1nccc2cc(S(=O)(=O)Nc3ccon3)ccc12` [Example 79, 1-(2-cyano-5-methoxy-2′-methyl-4-biphenylyl)-N-3-isoxazolyl-6-isoquinolinesulfonamide], for which the IC50 at Nav 1.5 (PatchXpress (PX), in vitro) was > 10000 nM; on Nav 1.7 (PatchXpress (PX), in vitro), 88 nM.

For `COc1cc(-c2ccc(F)c(F)c2)c(C#N)cc1-c1nccc2cc(S(=O)(=O)Nc3ccon3)ccc12` [Example 80, 1-(2-cyano-3′,4′-difluoro-5-methoxy-4-biphenylyl)-N-3-isoxazolyl-6-isoquinolinesulfonamide], the IC50 on Nav 1.5 (PatchXpress (PX), in vitro) was > 10000 nM; against Nav 1.7 (PatchXpress (PX), in vitro) it was 28.2 nM.

Turning to `COc1cc(-c2ccc(Cl)c(C)c2)c(C#N)cc1-c1nccc2cc(S(=O)(=O)Nc3ccon3)ccc12` [Example 82, 1-(4′-chloro-2-cyano-5-methoxy-3′-methyl-4-biphenylyl)-N-3-isoxazolyl-6-isoquinolinesulfonamide], the IC50 is > 10000 nM on Nav 1.5 (PatchXpress (PX), in vitro) and 26.1 nM against Nav 1.7 (PatchXpress (PX), in vitro).

In the case of `COc1cc(-c2ccc(F)c(Cl)c2)c(C#N)cc1-c1nccc2cc(S(=O)(=O)Nc3ccon3)ccc12` [Example 84, 1-(3′-chloro-2-cyano-4′-fluoro-5-methoxy-4-biphenylyl)-N-3-isoxazolyl-6-isoquinolinesulfonamide], the 50% inhibitory concentration (IC50) on Nav 1.5 (PatchXpress (PX), in vitro) was > 10000 nM; against Nav 1.7 (PatchXpress (PX), in vitro) it was 14.7 nM.

Consider `COc1cc(-c2ccc(F)c(C)c2)c(C#N)cc1-c1nccc2cc(S(=O)(=O)Nc3ccon3)ccc12` [Example 85, 1-(2-cyano-4′-fluoro-5-methoxy-3′-methyl-4-biphenylyl)-N-3-isoxazolyl-6-isoquinolinesulfonamide], for which the 50% inhibitory concentration (IC50) is > 10000 nM at Nav 1.5 (PatchXpress (PX), in vitro) and 28.8 nM on Nav 1.7 (PatchXpress (PX), in vitro).

As for `COc1cc(-c2cc(F)cc(Cl)c2)c(C#N)cc1-c1nccc2cc(S(=O)(=O)Nc3ccon3)ccc12` [Example 86, 1-(3′-chloro-2-cyano-5′-fluoro-5-methoxy-4-biphenylyl)-N-3-isoxazolyl-6-isoquinolinesulfonamide], the IC50 on Nav 1.5 (PatchXpress (PX), in vitro) is > 10000 nM; against Nav 1.7 (PatchXpress (PX), in vitro) it was 24.4 nM.

Take `COc1cc(-c2ccc(F)cc2)c(C#N)cc1-c1nccc2cc(S(=O)(=O)Nc3ccon3)ccc12` [Example 106, 1-(2-cyano-4′-fluoro-5-methoxy-4-biphenylyl)-N-3-isoxazolyl-6-isoquinolinesulfonamide]: the values for the IC50 at Nav 1.5 (in-vitro PX data) and at Nav 1.7 (in-vitro PX data) were > 10000 nM and 62.5 nM, respectively.

Regarding `COc1cc(-c2cc(F)cc(F)c2)c(C#N)cc1-c1nccc2cc(S(=O)(=O)Nc3ncccn3)ccc12` [Example 107, 1-(2-cyano-3′,5′-difluoro-5-methoxy-4-biphenylyl)-N-2-pyrimidinyl-6-isoquinolinesulfonamide], the results for the IC50 at Nav 1.5 (in-vitro PX data) and against Nav 1.7 (in-vitro PX data) were > 10000 nM and 255 nM, respectively.

Turning to `COc1cc(Cl)c(-c2cccc(F)c2)cc1-c1nccc2cc(S(=O)(=O)Nc3nncs3)ccc12` [Example 110, 1-(6-chloro-3′-fluoro-4-methoxy-3-biphenylyl)-N-1,3,4-thiadiazol-2-yl-6-isoquinolinesulfonamide], the IC50 at Nav 1.5 (in-vitro PX data) was > 10000 nM; on Nav 1.7 (in-vitro PX data), 109 nM.

`COc1cc(-c2cccc(Cl)c2)c(C#N)cc1-c1nccc2cc(S(=O)(=O)Nc3ccon3)ccc12` [Example 111, 1-(3′-chloro-2-cyano-5-methoxy-4-biphenylyl)-N-3-isoxazolyl-6-isoquinolinesulfonamide]: the IC50 on Nav 1.5 (in-vitro PX data) is > 10000 nM; at Nav 1.7 (in-vitro PX data), 21.8 nM.

On to `COc1cc(-c2cccc(C)c2)c(C#N)cc1-c1nccc2cc(S(=O)(=O)Nc3ccon3)ccc12` [Example 112, 1-(2-cyano-5-methoxy-3′-methyl-4-biphenylyl)-N-3-isoxazolyl-6-isoquinolinesulfonamide], for which the IC50 is > 10000 nM on Nav 1.5 (in-vitro PX data) and 39.5 nM against Nav 1.7 (in-vitro PX data).

Take `COc1cc(-c2cccc(F)c2)c(Cl)cc1-c1nncc2cc(S(=O)(=O)Nc3ncccn3)ccc12` [Example 113, 1-(2-chloro-3′-fluoro-5-methoxy-4-biphenylyl)-N-2-pyrimidinyl-6-phthalazinesulfonamide]: the results for the IC50 at Nav 1.5 (in-vitro PX data) and against Nav 1.7 (in-vitro PX data) were > 10000 nM and 95 nM, respectively.

For orientation: IC50 means the concentration at which inhibition is half-maximal.

The values are drawn from US9776995B2, “Bicyclic sulfonamide compounds as sodium channel inhibitors” (AMGEN INC., priority 2013, dated 2017).
